Results as given in PubChem BioAssay (NCI).
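Protocol summary: plate cells (96-well), add compound at 5 concentrations, incubate 48 h, interpolate endpoints linearly. GI50: concentration for 50% inhibition of growth. At the TGI there is no net growth.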

Columns and labels:
Assay in all cases: growth of human tumour cells (NCI), 48 h
SW-620 colon = test system: SW-620 colon
MDA-MB-231 breast = test system: MDA-MB-231 breast
HL-60(TB) leukemia = test system: HL-60(TB) leukemia
786-0 renal = test system: 786-0 renal
HS 578T breast = test system: HS 578T breast
KM12 colon = test system: KM12 colon
MOLT-4 leukemia = test system: MOLT-4 leukemia
A549 NSCLC = test system: A549 NSCLC
BT-549 breast = test system: BT-549 breast
OVCAR-8 ovarian = test system: OVCAR-8 ovarian

SMILES: Cc1nn(C(=O)c2ccc(Cl)cc2)c2c1C(c1ccc([N+](=O)[O-])cc1)SC(N)=N2 (centres undefined)
- TGI (SW-620 colon): > 10 µM
- TGI (MDA-MB-231 breast): > 10 µM
- TGI (HL-60(TB) leukemia): > 10 µM
- TGI (786-0 renal): > 10 µM
- TGI (HS 578T breast): > 10 µM
- TGI (KM12 colon): > 10 µM
- TGI (MOLT-4 leukemia): > 10 µM
- TGI (A549 NSCLC): > 10 µM
- TGI (BT-549 breast): > 10 µM
- TGI (OVCAR-8 ovarian): > 10 µM

SMILES: C1COC(NC(C2CC2)C2CC2)=N1
- TGI (SW-620 colon): > 100 µM
- TGI (MDA-MB-231 breast): > 100 µM
- TGI (HL-60(TB) leukemia): > 100 µM
- TGI (786-0 renal): > 100 µM
- TGI (HS 578T breast): > 100 µM
- TGI (KM12 colon): > 100 µM
- TGI (MOLT-4 leukemia): > 100 µM
- TGI (A549 NSCLC): > 100 µM
- TGI (BT-549 breast): > 100 µM
- TGI (OVCAR-8 ovarian): > 100 µM

SMILES: CCCCC(=O)N/N=C/c1cc(I)cc(I)c1O
- GI50 (SW-620 colon): 3.91 µM
- TGI (SW-620 colon): > 100 µM
- GI50 (MDA-MB-231 breast): 2.73 µM
- TGI (MDA-MB-231 breast): 29.9 µM
- GI50 (HL-60(TB) leukemia): 2.49 µM
- TGI (HL-60(TB) leukemia): 7.27 µM
- GI50 (786-0 renal): 3.39 µM
- TGI (786-0 renal): 20.6 µM
- GI50 (HS 578T breast): 7.92 µM
- TGI (HS 578T breast): 54.4 µM
- GI50 (KM12 colon): 3.74 µM
- TGI (KM12 colon): 53.8 µM
- GI50 (MOLT-4 leukemia): 2.39 µM
- TGI (MOLT-4 leukemia): 13 µM
- GI50 (A549 NSCLC): 3.63 µM
- TGI (A549 NSCLC): 22.4 µM
- GI50 (BT-549 breast): 4.48 µM
- TGI (BT-549 breast): 29.5 µM
- GI50 (OVCAR-8 ovarian): 2.26 µM
- TGI (OVCAR-8 ovarian): 13.3 µM

SMILES: C(=C1c2ccccc2-c2ccccc21)c1ccccn1
- GI50 (SW-620 colon): 4.03 µM
- TGI (SW-620 colon): 49.4 µM
- GI50 (MDA-MB-231 breast): 12.3 µM
- TGI (MDA-MB-231 breast): 39.8 µM
- GI50 (HL-60(TB) leukemia): 4.52 µM
- TGI (HL-60(TB) leukemia): 38.5 µM
- GI50 (786-0 renal): 14.7 µM
- TGI (786-0 renal): 29.8 µM
- GI50 (HS 578T breast): 6.21 µM
- TGI (HS 578T breast): 28.5 µM
- GI50 (KM12 colon): 3.6 µM
- TGI (KM12 colon): 14.2 µM
- GI50 (MOLT-4 leukemia): 11.8 µM
- TGI (MOLT-4 leukemia): > 100 µM
- GI50 (A549 NSCLC): 7.69 µM
- TGI (A549 NSCLC): 49.5 µM
- GI50 (BT-549 breast): 8.85 µM
- TGI (BT-549 breast): 53.1 µM
- GI50 (OVCAR-8 ovarian): 15.6 µM
- TGI (OVCAR-8 ovarian): 77.8 µM

SMILES: COc1ccc(O)c(C(=O)c2ccc(C(=O)O[C@@H]3CCCNC[C@H]3NC(=O)c3ccncc3)cc2)c1F
- TGI (SW-620 colon): > 25 µM
- GI50 (MDA-MB-231 breast): > 10.3 µM
- TGI (MDA-MB-231 breast): > 25 µM
- GI50 (HL-60(TB) leukemia): 0.753 µM
- TGI (HL-60(TB) leukemia): 2.34 µM
- GI50 (786-0 renal): 0.403 µM
- TGI (786-0 renal): > 25 µM
- GI50 (HS 578T breast): 0.174 µM
- TGI (HS 578T breast): > 25 µM
- GI50 (KM12 colon): 0.8 µM
- TGI (KM12 colon): > 25 µM
- GI50 (MOLT-4 leukemia): 0.456 µM
- TGI (MOLT-4 leukemia): > 5.54 µM
- GI50 (A549 NSCLC): 0.592 µM
- TGI (A549 NSCLC): > 25 µM
- GI50 (BT-549 breast): 0.212 µM
- TGI (BT-549 breast): 3.36 µM
- GI50 (OVCAR-8 ovarian): 1.04 µM
- TGI (OVCAR-8 ovarian): > 25 µM

SMILES: CO[C@@H]1[C@@H](OC2OC(C)C(OC3CC(C)(O)C(OC(=O)CC(C)C)C(C)O3)C(N(C)C)C2O)[C@@H](CC=O)C[C@@H](C)C(=O)/C=C/C2O[C@H]2C[C@@H](C)OC(=O)C[C@H]1OC(C)=O (some centres undefined)
- TGI (SW-620 colon): 35.8 µM
- TGI (MDA-MB-231 breast): 45.6 µM
- TGI (HL-60(TB) leukemia): 25 µM
- TGI (786-0 renal): 50.2 µM
- TGI (HS 578T breast): > 100 µM
- TGI (KM12 colon): 32.2 µM
- TGI (MOLT-4 leukemia): 27.7 µM
- TGI (A549 NSCLC): > 100 µM
- TGI (BT-549 breast): 40.5 µM
- TGI (OVCAR-8 ovarian): > 100 µM
